Measurements from patent US20130344494A1, “MYH10 AS A NEW MARKER OF PATHOLOGIES RESULTING FROM RUNX1 INACTIVATION” (priority 2011, published 2013).

Assays:
CD41+ MK = experiment: Ploidy level of CD41+ MK cultured from mouse fetal liver Lin- progenitors; type: cell-based, mice; conditions: 50 μM blebbistatin, p=0.01, n=3
Procedure: Thus, the ploidy level of CD41^+ MK was analyzed directly after dissociation the fetal liver as previously described for bone marrow MK (GILLES et al, Blood, 2009). Briefly, the hematopoietic progenitors (Lineage negative, Lin-, cells) were purified from fetal liver of E13.5 by the kit MILTENYI BIOTEC and were cultivated in serum free medium with TPO and stem cell factor (SCF). Blebbistatin was added in the culture just after the purification and ploidy level of CD41^+ cells was analyzed at day 3 of culture.

H2B-GFP-expressing MKs = experiment: Real-time video microscopy of endomitosis in H2B-GFP-expressing MKs; type: cell-based; conditions: Blebbistatin 25 μM
Procedure: To check more precisely how myosin II inhibition affects the endomitosis process, we used real-time video microscopy to monitor endomitosis in H2B-GFP-expressing MKs treated with Blebbistatin (25 μM). Endomitotic MK treated with Blebbistatin or without Blebbistatin were filmed in 3 independent experiments.

CD41+ cells (MKs) = experiment: FRAP of actin-GFP turnover in the contractile ring of MKs; type: cell-based; conditions: Blebbistatin 12.5 μM
Procedure: CD41^+ GFP^+ and CD41^− GFP^+ cells were sorted and the actin turnover was measured in the contractile ring at the end of cytokinesis by FRAP in the dipolar mitosis or endomitosis.

CD41+/CD42+ MKs = experiment: MK ploidy level by flow cytometry after addition of Blebbistatin; type: cell-based; conditions: added at day 6, 72 h
Procedure: To investigate the role of myosin II in MK endomitosis, Blebbistatin was used to inhibit its […] during megakaryocytosis. Blebbistatin is added into MK culture at day 6. The ploidy level of CD41^+/CD42^+ MKs was analyzed by flow cytometry 72 h after addition of Blebbistatin.

In the case of `Cc1ccc2c(c1)C(=O)C1(O)CCN(c3ccccc3)C1=N2` (centres unmarked) [Blebbistatin], the mean ploidy level (CD41+ MK; myh9−/− mice, without 10.40) is reported as 14.72, the mean ploidy level (CD41+ MK; wt control mice, without 10.00N) is reported as 13.40 N and the “furrow ingression of MKs” value (H2B-GFP-expressing MKs) is reported as “almost completely inhibited”. For the same molecule, the metaphase-to-anaphase transition (H2B-GFP-expressing MKs) was “apparently normal”, the “actin-GFP fluorescence recovery in the contractile ring of MKs” value (CD41+ cells (MKs); control 55.7%±12.8, n=8, p=0.01) was 42.9%±9.0 and the “t1/2 of actin-GFP fluorescence recovery” value (CD41+ cells (MKs); n=8) was 2.94 ± 1.35 s. It also gave a mean ploidy (CD41+/CD42+ MKs; 25 μM Blebbistatin, control 6.47N, n=3, p=0.015) of 11.27 N and a mean ploidy (CD41+/CD42+ MKs; 100 μM Blebbistatin, control 6.28N, n=4, p=0.008) of 12.13 N.
